# Measurements as given in patent US20160084855A1, “Compositions and Methods for Modulation and Detection of Immune and Inflammatory Responses” (UNIVERSITY OF CONNECTICUT, priority 2013, published 2016).
# Key:
# [1] = test system: C57BL/6 (WT), TLR2−/−, IL-15−/− and IL-15Rα−/− mice with EAE; assay: EAE induced with MOG35-55 in CFA plus pertussis toxin; clinical grading; assay type: in vivo, mouse; settings: for Mean Day of Onset of EAE / Mean Maximum Severity of EAE / Mean Incidence of disease: PE DHC; for Mean Maximum Severity of EAE: 20-day observation; for MDD (Mean Daily Disease) / CDI (cumulative disease index): PE DHC 250 ng single i.p. Day 0; for MDD (Mean Daily Disease): 20 days; for CDI (cumulative disease index): through Day 20
# Method: […]. In addition, mice were injected intraperitoneally (i.p.) on Day 0 with either P. gingivalis lipid or the vehicle control, 70% ethanol (EtOH). EAE was scored as: Grade 1-tail paralysis; Grade 2-weakness of hind limbs with an altered gait; Grade 3-hind limb paralysis; Grade 4-front limb paralysis; Grade 5-death.
# For treatment of mice, preweighed lipids were dissolved in 70% ethanol to achieve a final concentration of 125 ng/μl, and sonicated for 2.5 minutes immediately before injection into experimental animals. This preparation was also used for drying lipids onto tissue culture wells. For direct addition to cell cultures, the lipids were dissolved in culture medium at 125 ng/μl and sonicated for 2.5 minutes to produce a liposome preparation for administration to cells in culture.
# The cumulative disease index (CDI) was obtained by summing the daily average disease scores through Day 20. A mean of these daily disease scores (Mean Daily Disease) (+/−SEM) was calculated based on the 20 days of observation. The Mean Daily Disease scores were compared using the Wilcoxin Signed Rank tests for two samples. Disease incidence frequencies were compared using Chi square analysis. Values for mean maximum severity of EAE were compared using the Wilcoxin Signed Rank test. Values for mean day of onset of EAE were compared using the Student's t-test. For analysis of spinal cord populations, percentages were compared using Student's t test. Bacterial fatty acid levels in brain lipid extracts for each treatment group were evaluated using least squares linear regression analysis that included calculation of correlation coefficients. For each dose of bacterial lipid administered, linear regression analysis compared the final EAE score with the mean bacterial fatty acid recovered per 0.5 mg of brain lipid extract. The mean bacterial fatty acid levels were calculated from three replicate brain lipid determinations.
# EAE was induced in female C57BL/6 (WT) mice and these mice were also injected i.p. on Day 0 with either P. gingivalis lipids or the vehicle control, 70% ethanol (EtOH). To most effectively detect effects of P. gingivalis lipids in the development of autoimmunity, less severe EAE was induced by using CFA with […] concentrations of H37RA mycobacteria (500 μg/mouse). […] Component HPLC fractions of the TL were examined individually. […] FIG. 7 illustrates one representative experiment of six similar studies, in which 250 ng of PE DHC was administered to WT mice.
# Mice deficient in either IL-15 (IL-15^−/− mice) or the IL-15 receptor α (IL-15Rα^−/− mice) are known to express very few identifiable NKT cells (Kennedy et al. “Reversible defects in natural killer and memory CD8 T cell lineages in interleukin 15-deficient mice,” J. Exp. Med. 191:771-780 (2000); Lodolce et al. “IL-15 receptor maintains lymphoid homeostasis by supporting lymphocyte homing and proliferation” Immunity 9:669-676 (1998). WT mice and either IL-15^−/− or IL-15Rα^−/− mice (both on a C57BL/6 background) were immunized for EAE and given a single i.p. injection of EtOH or PE DHC on Day 0. […] FIGS. 8 and 9 show representative experiments using IL-15^−/− and IL-15Rα^−/− mice.
# TLR-2 deficient (TLR2^−/−) mice were immunized with the standard EAE-inducing MOG protocol and administered a single i.p. injection of either EtOH or PE DHC on Day 0.
# bone marrow DCs (BMDCs) = assay: Stimulation of bone marrow dendritic cells, IL-6 ELISA and surface activation markers; assay type: cell-based, mouse; settings: for IL-6 secretion: plate-bound LPS 1 μg, MMP 10 μg, PE DHC 2.5 μg, 18 hrs
# Method: Bone marrow cells from C57BL/6 and TLR2^−/− mice were cultured at 2×10^5 cells/ml in RPMI containing 10% FCS, 2-ME, and 20 ng/ml recombinant murine GM-CSF for 9 days. Bone marrow DCs (BMDCs) were harvested at Day 9 and were greater than 80% CD11c+. LPS (1 μg), MMP (10 μg) (a bacterial lipoprotein and known TLR-2 ligand (Bachem H-9460), PE DHC (2.5 μg) or 70% EtOH, all in 20 ul volumes, were allowed to dry in the wells of a 24-well plate overnight prior to the addition of BMDCs. BMDCs were cultured in the ligand-bound 24-well plates at 1×10^6 cells/ml in RPMI containing GM-CSF. After 18 hrs, culture supernatants were harvested and tested for IL-6 via ELISA.
# The effects of PE DHC on antigen presenting cell (APC) activation in vitro were examined Dendritic cells (BMDCs) (>85% CD11c+) were derived from the bone marrow of WT or TLR2^−/− mice and cultured either alone or with EtOH, LPS, MMP (a TLR2 ligand), or PE DHC. After 18 hrs supernatants were assayed for IL-6. […] BMDCs were also assayed for expression of the surface activation markers B7.2 and MHC class II.
# [2] = IL-15Rα−/− mice that developed EAE
# [3] = IL-15−/− mice that developed EAE
# [4] = TLR2−/− mice that developed EAE
# [5] = Wild Type mice that developed EAE
substance,measurement,setting,value
phosphoethanolamine dihydroceramide [PE DHC],Mean Day of Onset of EAE,[1]; [2],13.8 days
same,Mean Maximum Severity of EAE,[1]; [2],2.9
same,Mean Incidence of disease,[1]; IL-15Rα−/− mice,100%
same,MDD (Mean Daily Disease),[1]; IL-15Rα−/− mice,0.9
same,CDI (cumulative disease index),[1]; IL-15Rα−/− mice,18.7
same,CDI and mean daily disease compared with EtOH-treated mice,[1]; IL-15−/− and IL-15Rα−/− mice,greater than a doubling
same,Effect on EAE,"[1]; IL-15−/− and IL-15Rα−/− mice, single i.p. injection Day 0",significantly enhanced EAE
same,Mean Day of Onset of EAE,[1]; [3],13.0 days
same,Mean Maximum Severity of EAE,[1]; [3],3.7
same,Mean Incidence of disease,[1]; IL-15−/− mice,90%
same,MDD (Mean Daily Disease),[1]; IL-15−/− mice,1.2
same,CDI (cumulative disease index),[1]; IL-15−/− mice,24.5
same,Mean Day of Onset of EAE,[1]; [4],14.7 days
same,Mean Maximum Severity of EAE,[1]; [4],2.9
same,Mean Incidence of disease,[1]; TLR2−/− mice,46.6%
same,MDD (Mean Daily Disease),[1]; TLR2−/− mice,0.4
same,CDI (cumulative disease index),[1]; TLR2−/− mice,8.3
same,Effect on CDI and mean daily disease,"[1]; TLR2−/− mice, single i.p. injection Day 0",did not mediate enhancement of CDI or mean daily disease
same,CDI and mean daily disease compared with EtOH-treated mice,"[1]; WT mice, 250 ng, cumulative results of six experiments",essentially a doubling
same,Effect on EAE disease,"[1]; WT mice, 2.5 μg, 250 ng and 25 ng, 250 ng most efficient",led to enhanced disease
same,Onset of disease compared to EtOH-treated mice,"[1]; WT mice, p=0.008",significantly earlier onset of disease
same,Effect on severity of EAE,"[1]; WT mice, single 250 ng i.p. injection on Day 0",consistently enhanced the severity of EAE
same,Mean Day of Onset of EAE,[1]; [5],12.1 days
same,Mean Maximum Severity of EAE,[1]; [5],3.6
same,Mean Incidence of disease,[1]; Wild Type mice,75%
same,MDD (Mean Daily Disease),[1]; Wild Type mice,1.0
same,CDI (cumulative disease index),[1]; Wild Type mice,19.8
same,IL-6 secretion,bone marrow DCs (BMDCs); TLR2−/− BMDCs,did not result in IL-6 secretion
same,IL-6 secretion,bone marrow DCs (BMDCs); WT BMDCs,levels of IL-6 secretion that were almost equivalent to that seen with LPS
same,Expression of surface activation markers B7.2 and MHC class II,bone marrow DCs (BMDCs); WT and TLR2−/− BMDCs,increased MHC II and B7.2 expression on WT but not TLR2^−/− BMDCs
